Key:
Assay in all cases: viability relative to DMSO control (fraction); higher = less drug effect (more viable cells)
Details in all cases: 48 h
Pralatrexate = compound: C#CCC(Cc1cnc2nc(N)nc(N)c2n1)c1ccc(C(=O)N[C@@H](CCC(=O)O)C(=O)O)cc1 [Pralatrexate]
Method in brief: (§1)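 In 384-well plates with compounds pre-plated at five concentrations (one well per concentration), primary mononuclear tumour cells were plated at 4 × 10^4 cells per well. The cells came from blood or bone marrow by Ficoll isolation or from processed lymph node, and were used fresh or cryopreserved. Culture ran for 48 h at 37 °C and 5% CO2 in RPMI-1640 containing penicillin/streptomycin, L-glutamine and human serum. Viability was read as CellTiter-Glo luminescence, normalised to the median of 16 inner DMSO wells.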

ONO-4059 = compound: CC#CC(=O)N1CC[C@@H](n2c(=O)n(-c3ccc(Oc4ccccc4)cc3)c3c(N)ncnc32)C1 [ONO-4059]
Method in brief: as §1

[1] = compound: CC(C)(C)OC(=O)Nc1ccc(-c2cc(C(=O)NCCCCCCC(=O)NO)no2)cc1
Method in brief: as §1

Vemurafenib = compound: CCCS(=O)(=O)Nc1ccc(F)c(C(=O)c2c[nH]c3ncc(-c4ccc(Cl)cc4)cc23)c1F [Vemurafenib]
Method in brief: as §1

ERK5-IN-1 = compound: CCOc1cc(C(=O)N2CCC(N3CCN(C)CC3)CC2)ccc1Nc1ncc2c(n1)N(C1CCCC1)c1ccccc1C(=O)N2C [ERK5-IN-1]
Method in brief: as §1

BI6727 = compound: CC[C@@H]1C(=O)N(C)c2cnc(Nc3ccc(C(=O)N[C@H]4CC[C@H](N5CCN(CC6CC6)CC5)CC4)cc3OC)nc2N1C(C)C [BI6727]
Method in brief: as §1

Vincristine = compound: CC[C@]1(O)C[C@H]2CN(CCc3c([nH]c4ccccc34)[C@@](C(=O)OC)(c3cc4c(cc3OC)N(C=O)[C@H]3[C@@](O)(C(=O)OC)[C@H](OC(C)=O)[C@]5(CC)C=CCN6CC[C@]43[C@@H]65)C2)C1 [Vincristine]
Method in brief: as §1

Ribociclib = compound: CN(C)C(=O)c1cc2cnc(Nc3ccc(N4CCNCC4)cn3)nc2n1C1CCCC1 [Ribociclib]
Method in brief: as §1

Obatoclax mesylate = compound: COC1=CC(c2cc3ccccc3[nH]2)=N/C1=C\c1[nH]c(C)cc1C [Obatoclax mesylate]
Method in brief: as §1

MLN-120B = compound: COc1c(Cl)cc2c([nH]c3cnccc32)c1NC(=O)c1cccnc1C [MLN-120B]
Method in brief: as §1

Panobinostat = compound: Cc1[nH]c2ccccc2c1CCNCc1ccc(/C=C/C(=O)NO)cc1 [Panobinostat]
Method in brief: as §1

AZD7762 = compound: NC(=O)Nc1cc(-c2cccc(F)c2)sc1C(=O)N[C@H]1CCCNC1 [AZD7762]
Method in brief: as §1

Cladribine = compound: Nc1nc(Cl)nc2c1ncn2[C@H]1C[C@H](O)[C@@H](CO)O1 [Cladribine]
Method in brief: as §1

Vorinostat = compound: O=C(CCCCCCC(=O)Nc1ccccc1)NO [Vorinostat]
Method in brief: as §1

TMP269 = compound: O=C(NCC1(c2nc(-c3ccccc3)cs2)CCOCC1)c1cccc(-c2noc(C(F)(F)F)n2)c1 [TMP269]
Method in brief: as §1

Pentostatin = compound: OC[C@H]1O[C@@H](n2cnc3c2N=CNC[C@H]3O)C[C@@H]1O [Pentostatin]
Method in brief: as §1

primary DLBCL patient cells (S076)
viability (Pralatrexate; 0.024 µM): 1.01 | viability (Pralatrexate; 0.12 µM): 0.756 | viability (Pralatrexate; 0.6 µM): 0.838 | viability (Pralatrexate; 3 µM): 0.978 | viability (Pralatrexate; 15 µM): 0.843 | viability (ONO-4059; 0.0016 µM): 1.03 | viability (ONO-4059; 0.008 µM): 1.04 | viability (ONO-4059; 0.04 µM): 1.08 | viability (ONO-4059; 0.2 µM): 0.992 | viability (ONO-4059; 1 µM): 0.929 | viability ([1]; 0.024 µM): 1.05 | viability ([1]; 0.12 µM): 0.81 | viability ([1]; 0.6 µM): 0.628 | viability ([1]; 3 µM): 0.313 | viability ([1]; 15 µM): 0.119 | viability (Vemurafenib; 0.024 µM): 0.8 | viability (Vemurafenib; 0.12 µM): 0.988 | viability (Vemurafenib; 0.6 µM): 0.83 | viability (Vemurafenib; 3 µM): 1.04 | viability (Vemurafenib; 15 µM): 1.05 | viability (ERK5-IN-1; 0.024 µM): 1.09 | viability (ERK5-IN-1; 0.12 µM): 1 | viability (ERK5-IN-1; 0.6 µM): 0.876 | viability (ERK5-IN-1; 3 µM): 0.755 | viability (ERK5-IN-1; 15 µM): 0.436 | viability (BI6727; 0.024 µM): 1.07 | viability (BI6727; 0.12 µM): 0.971 | viability (BI6727; 0.6 µM): 0.881 | viability (BI6727; 3 µM): 0.614 | viability (BI6727; 15 µM): 0.372 | viability (Vincristine; 0.016 µM): 0.726 | viability (Vincristine; 0.08 µM): 0.561 | viability (Vincristine; 0.4 µM): 0.519 | viability (Vincristine; 2 µM): 0.44 | viability (Vincristine; 10 µM): 0.363 | viability (Ribociclib; 0.024 µM): 1.25 | viability (Ribociclib; 0.12 µM): 1.2 | viability (Ribociclib; 0.6 µM): 1.11 | viability (Ribociclib; 3 µM): 0.986 | viability (Ribociclib; 15 µM): 0.586 | viability (Obatoclax mesylate; 0.024 µM): 0.922 | viability (Obatoclax mesylate; 0.12 µM): 1.14 | viability (Obatoclax mesylate; 0.6 µM): 0.746 | viability (Obatoclax mesylate; 3 µM): 0.541 | viability (Obatoclax mesylate; 15 µM): 0.173 | viability (MLN-120B; 0.024 µM): 1.07 | viability (MLN-120B; 0.12 µM): 1.07 | viability (MLN-120B; 0.6 µM): 1.05 | viability (MLN-120B; 3 µM): 0.997 | viability (MLN-120B; 15 µM): 0.861 | viability (Panobinostat; 0.00064 µM): 1.05 | viability (Panobinostat; 0.0032 µM): 0.78 | viability (Panobinostat; 0.016 µM): 0.285 | viability (Panobinostat; 0.08 µM): 0.203 | viability (Panobinostat; 0.4 µM): 0.169 | viability (AZD7762; 0.024 µM): 0.679 | viability (AZD7762; 0.12 µM): 0.69 | viability (AZD7762; 0.6 µM): 0.55 | viability (AZD7762; 3 µM): 0.481 | viability (AZD7762; 15 µM): 0.348 | viability (Cladribine; 0.024 µM): 0.475 | viability (Cladribine; 0.12 µM): 0.331 | viability (Cladribine; 0.6 µM): 0.138 | viability (Cladribine; 3 µM): 0.0919 | viability (Cladribine; 15 µM): 0.0759 | viability (Vorinostat; 0.016 µM): 1 | viability (Vorinostat; 0.08 µM): 0.884 | viability (Vorinostat; 0.4 µM): 0.734 | viability (Vorinostat; 2 µM): 0.417 | viability (Vorinostat; 10 µM): 0.198 | viability (TMP269; 0.024 µM): 1.17 | viability (TMP269; 0.12 µM): 1.07 | viability (TMP269; 0.6 µM): 1.15 | viability (TMP269; 3 µM): 0.94 | viability (TMP269; 15 µM): 0.959 | viability (Pentostatin; 0.03 µM): 1.04 | viability (Pentostatin; 0.15 µM): 0.808 | viability (Pentostatin; 0.75 µM): 0.824 | viability (Pentostatin; 3.75 µM): 0.6 | viability (Pentostatin; 18.76 µM): 0.618

primary T-NHL patient cells (S058)
viability (Pralatrexate; 0.024 µM): 1.15 | viability (Pralatrexate; 0.12 µM): 0.861 | viability (Pralatrexate; 0.6 µM): 0.833 | viability (Pralatrexate; 3 µM): 0.902 | viability (Pralatrexate; 15 µM): 0.833 | viability (ONO-4059; 0.0016 µM): 1.06 | viability (ONO-4059; 0.008 µM): 1.25 | viability (ONO-4059; 0.04 µM): 1.03 | viability (ONO-4059; 0.2 µM): 1.16 | viability (ONO-4059; 1 µM): 1.07 | viability ([1]; 0.024 µM): 0.982 | viability ([1]; 0.12 µM): 0.854 | viability ([1]; 0.6 µM): 0.611 | viability ([1]; 3 µM): 0.355 | viability ([1]; 15 µM): 0.258 | viability (Vemurafenib; 0.024 µM): 0.878 | viability (Vemurafenib; 0.12 µM): 0.957 | viability (Vemurafenib; 0.6 µM): 0.911 | viability (Vemurafenib; 3 µM): 0.982 | viability (Vemurafenib; 15 µM): 0.96 | viability (ERK5-IN-1; 0.024 µM): 1.12 | viability (ERK5-IN-1; 0.12 µM): 1.15 | viability (ERK5-IN-1; 0.6 µM): 0.851 | viability (ERK5-IN-1; 3 µM): 0.59 | viability (ERK5-IN-1; 15 µM): 0.403 | viability (BI6727; 0.024 µM): 0.939 | viability (BI6727; 0.12 µM): 0.885 | viability (BI6727; 0.6 µM): 0.757 | viability (BI6727; 3 µM): 0.506 | viability (BI6727; 15 µM): 0.3 | viability (Vincristine; 0.016 µM): 0.646 | viability (Vincristine; 0.08 µM): 0.417 | viability (Vincristine; 0.4 µM): 0.364 | viability (Vincristine; 2 µM): 0.302 | viability (Vincristine; 10 µM): 0.246 | viability (Ribociclib; 0.024 µM): 1.05 | viability (Ribociclib; 0.12 µM): 1.14 | viability (Ribociclib; 0.6 µM): 1.07 | viability (Ribociclib; 3 µM): 1.01 | viability (Ribociclib; 15 µM): 1.06 | viability (Obatoclax mesylate; 0.024 µM): 0.985 | viability (Obatoclax mesylate; 0.12 µM): 0.916 | viability (Obatoclax mesylate; 0.6 µM): 0.783 | viability (Obatoclax mesylate; 3 µM): 0.533 | viability (Obatoclax mesylate; 15 µM): 0.227 | viability (MLN-120B; 0.024 µM): 0.984 | viability (MLN-120B; 0.12 µM): 1.15 | viability (MLN-120B; 0.6 µM): 1.05 | viability (MLN-120B; 3 µM): 1.16 | viability (MLN-120B; 15 µM): 0.908 | viability (Panobinostat; 0.00064 µM): 1.24 | viability (Panobinostat; 0.0032 µM): 0.886 | viability (Panobinostat; 0.016 µM): 0.292 | viability (Panobinostat; 0.08 µM): 0.302 | viability (Panobinostat; 0.4 µM): 0.243 | viability (AZD7762; 0.024 µM): 1.05 | viability (AZD7762; 0.12 µM): 1.16 | viability (AZD7762; 0.6 µM): 0.936 | viability (AZD7762; 3 µM): 1.02 | viability (AZD7762; 15 µM): 0.719 | viability (Cladribine; 0.024 µM): 0.857 | viability (Cladribine; 0.12 µM): 0.441 | viability (Cladribine; 0.6 µM): 0.147 | viability (Cladribine; 3 µM): 0.112 | viability (Cladribine; 15 µM): 0.0704 | viability (Vorinostat; 0.016 µM): 1.16 | viability (Vorinostat; 0.08 µM): 0.894 | viability (Vorinostat; 0.4 µM): 0.789 | viability (Vorinostat; 2 µM): 0.381 | viability (Vorinostat; 10 µM): 0.274 | viability (TMP269; 0.024 µM): 1.05 | viability (TMP269; 0.12 µM): 0.994 | viability (TMP269; 0.6 µM): 1.01 | viability (TMP269; 3 µM): 0.892 | viability (TMP269; 15 µM): 0.836 | viability (Pentostatin; 0.03 µM): 1.1 | viability (Pentostatin; 0.15 µM): 1.06 | viability (Pentostatin; 0.75 µM): 0.988 | viability (Pentostatin; 3.75 µM): 0.816 | viability (Pentostatin; 18.76 µM): 0.858

Source: the supplement of paper PMC10733146
